Experiments:
Settings in all cases: banded MIC grade
Aspergillus flavus = assay: Minimum inhibitory concentration, YAG medium; type: cell-based
In short: (§1)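 Twofold aqueous dilution series, prepared from a DMSO stock (5 mg/mL), were inoculated with Aspergillus spp. spores; incubation lasted 24 hrs at 35° C before OD 485 nm readings.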

Aspergillus terreus = assay: Minimum inhibitory concentration, YAG medium; type: cell-based
In short: as §1

Aspergillus niger = assay: Minimum inhibitory concentration, YAG medium; type: cell-based
In short: as §1

A. fumigatus 210 [1] = assay: Minimum inhibitory concentration, YAG medium; type: cell-based, Aspergillus fumigatus
In short: (§2)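 Broth microdilution in YAG medium (1% glucose, 1% ammonium chloride, 0.5% yeast extract) with spore inocula of 1-2×10^4 cfu/mL and doubling dilutions typically spanning 50-0.05 mg/L. Plates were incubated 24 hrs at 35° C and read by OD 485 nm. MIC is the lowest concentration giving >70% growth inhibition versus drug-free control, in mg/L.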

A. terreus 49 [2] = assay: Minimum inhibitory concentration, RPMI medium; type: cell-based
In short: (§3)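 Incubated at 35° C for 24-48 hrs in RPMI 1640 with twofold water dilutions of compound (from 5 mg/mL stock in DMSO); absorbance at 485 nm indicated growth.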

C. albicans = assay: Minimum inhibitory concentration, RPMI medium; type: cell-based
In short: as §3

C. tropicalis = assay: Minimum inhibitory concentration, RPMI medium; type: cell-based
In short: as §3

A. terreus = assay: Minimum inhibitory concentration, RPMI medium; type: cell-based
In short: as §3

C. krusei = assay: Minimum inhibitory concentration, RPMI medium; type: cell-based
In short: as §3

A. niger = assay: Minimum inhibitory concentration, RPMI medium; type: cell-based
In short: as §3

A. flavus = assay: Minimum inhibitory concentration, RPMI medium; type: cell-based
In short: as §3

C. glabrata = assay: Minimum inhibitory concentration, RPMI medium; type: cell-based
In short: as §3

C. parapsilosis = assay: Minimum inhibitory concentration, RPMI medium; type: cell-based
In short: as §3

Aspergillus fumigatus = assay: Minimum inhibitory concentration, YAG medium; type: cell-based
In short: as §2

A. fumigatus 210 [3] = assay: Minimum inhibitory concentration, RPMI medium; type: cell-based
In short: (§4)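 Broth microdilution in RPMI 1640 (2% glucose, 0.135 M MOPS, pH 7.0) at 1-2×10^4 cfu/mL, testing 50-0.05 mg/L in doubling steps. After 24-48 hrs at 35° C, OD at 485 nm was read, and the MIC was taken as the lowest drug level suppressing growth by >80% relative to drug-free wells.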

A. fumigatus = assay: Minimum inhibitory concentration, RPMI medium; type: cell-based
In short: as §4

A. terreus 49 [4] = assay: Minimum inhibitory concentration, YAG medium; type: cell-based, Aspergillus terreus
In short: as §1

Compound | MIC grade, A. FLAVUS, YAG media (Aspergillus flavus) | MIC grade, A. TERREUS, YAG media (Aspergillus terreus) | MIC grade, A. NIGER, YAG media (Aspergillus niger) | MIC grade, A. FUMIGATUS 210, YAG media (A. fumigatus 210 [1]) | MIC grade, A. TERREUS 49, RPMI media (A. terreus 49 [2]) | MIC grade, C. ALBICANS, RPMI media (C. albicans) | MIC grade, C. TROPICALIS, RPMI media (C. tropicalis) | MIC grade, A. TERREUS, RPMI media (A. terreus) | MIC grade, C. KRUSEI, RPMI media (C. krusei) | MIC grade, A. NIGER, RPMI media (A. niger) | MIC grade, A. FLAVUS, RPMI media (A. flavus) | MIC grade, C. GLABRATA, RPMI media (C. glabrata) | MIC grade, C. PARAPSILOSIS, RPMI media (C. parapsilosis) | MIC grade, A. FUMIGATUS, YAG media (Aspergillus fumigatus) | MIC grade, A. FUMIGATUS 210, RPMI media (A. fumigatus 210 [3]) | MIC grade, A. FUMIGATUS, RPMI media (A. fumigatus) | MIC grade, A. TERREUS 49, YAG media (A. terreus 49 [4])
NC1=NN=C(CCCCOCc2ccc(Cl)cc2)CS1 | 4 (4: <0.2 mg/L) | 4 (4: <0.2 mg/L) | 4 (4: <0.2 mg/L) | 4 (4: <0.2 mg/L) | 3 (3: 1-5 mg/L) | 4 (4: <1 mg/L) | 3 (3: 1-5 mg/L) | 3 (3: 1-5 mg/L) | 4 (4: <1 mg/L) | 3 (3: 1-5 mg/L) | 4 (4: <1 mg/L) | 3 (3: 1-5 mg/L) | 4 (4: <1 mg/L) | 4 (4: <0.2 mg/L) | 2 (2: 5-20 mg/L) | 3 (3: 1-5 mg/L) | 4 (4: <0.2 mg/L)
NC1=NN=C(CCCCCOc2ccccn2)CS1 | 4 (4: <0.2 mg/L) | 4 (4: <0.2 mg/L) | 4 (4: <0.2 mg/L) | 4 (4: <0.2 mg/L) | 4 (4: <1 mg/L) | 4 (4: <1 mg/L) | 4 (4: <1 mg/L) | 4 (4: <1 mg/L) | 4 (4: <1 mg/L) | 4 (4: <1 mg/L) | 4 (4: <1 mg/L) | 3 (3: 1-5 mg/L) | 4 (4: <1 mg/L) | 4 (4: <0.2 mg/L) | 3 (3: 1-5 mg/L) | 4 (4: <1 mg/L) | 4 (4: <0.2 mg/L)
